Tests used:
[1] = test system: 11β-HSD1-reductase activity in rat aortic rings; test: Conversion of 3H-11-dehydrocorticosterone to corticosterone by aortic rings; details: vascular tissue
Description: (ii) ^3H-11-dehydro-corticosterone (10 nmol/L)±11β-HSD1 antisense (3 μmol/L); this experiment was performed in duplicate (n=10 aortic rings per well). Control groups were incubated with the appropriate nonsense oligomer. ^3H-corticosterone in the incubation medium after 24 hrs was then measured. In this experiment, aortic rings were also analyzed for ^3H-corticosterone content. Rings from duplicate incubations (total n=20) were blotted dry, pooled and homogenized in 50% methanol using a Polytron. The homogenates were then centrifuged, extracted as below using Sep-Paks and injected onto a HPLC system for analysis.
Incubation media was collected, ran through a Sep-Pak and eluted with 3 mls of methanol, the eluate was then dried under nitrogen and reconstituted in 500:1 methanol. The aortic rings were dried and weighed. The steroids present in the eluate were separated by high-pressure liquid chromatography with a Dupont Zorbax C8 column eluted at 44° C. at a flow rate of 1 mL/min using 55% methanol for 10 minutes. Steroids were observed by monitoring radioactivity on-line with a Packard Radiomatic Flo-One/Beta Series A-500 counter connected to a Dell Optiflex 425 S/L computer. Corticosterone and 11-dehydro-corticosterone were identified by comparing their retention times with that of known standards.

11β-HSD1 Dehydrogenase = biological target: T1, 11β-HSD1 Dehydrogenase (Rattus norvegicus, UniProt P16232); test: 11β-HSD1 dehydrogenase inhibition, testicular Leydig cell homogenates; assay type: biochemical; details: result in words
T1 construct: testicular leydig cell homogenates; from tissue; host or cells: testicular Leydig cell homogenates
T1 sequence (P16232 whole entry): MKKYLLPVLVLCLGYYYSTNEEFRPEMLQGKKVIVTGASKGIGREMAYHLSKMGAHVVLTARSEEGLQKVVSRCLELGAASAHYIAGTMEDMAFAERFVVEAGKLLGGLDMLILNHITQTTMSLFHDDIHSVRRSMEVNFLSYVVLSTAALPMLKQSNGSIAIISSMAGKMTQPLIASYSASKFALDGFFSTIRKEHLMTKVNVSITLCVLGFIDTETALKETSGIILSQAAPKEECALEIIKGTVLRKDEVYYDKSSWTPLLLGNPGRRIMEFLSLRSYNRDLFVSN

11β-HSD2 Dehydrogenase = biological target: T2, 11β-HSD2 Dehydrogenase (Ovis aries, UniProt P50168); test: 11β-HSD2 dehydrogenase inhibition, sheep kidney microsomes; assay type: biochemical; details: result in words
T2 construct: sheep kidney microsomes; from tissue; host or cells: sheep kidney microsomes
T2 sequence (P50168 1-427): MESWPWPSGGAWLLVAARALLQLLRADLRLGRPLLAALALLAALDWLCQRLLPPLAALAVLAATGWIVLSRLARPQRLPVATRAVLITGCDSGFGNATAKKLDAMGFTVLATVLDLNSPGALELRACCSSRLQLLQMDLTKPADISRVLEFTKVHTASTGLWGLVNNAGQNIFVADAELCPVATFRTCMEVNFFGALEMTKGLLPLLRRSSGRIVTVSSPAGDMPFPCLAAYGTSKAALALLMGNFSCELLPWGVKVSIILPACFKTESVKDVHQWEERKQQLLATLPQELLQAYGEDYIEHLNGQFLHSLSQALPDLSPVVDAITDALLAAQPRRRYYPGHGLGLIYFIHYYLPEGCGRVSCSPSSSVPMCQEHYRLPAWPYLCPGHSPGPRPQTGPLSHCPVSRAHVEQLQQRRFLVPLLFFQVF

rat aortic rings = test: Contractile response of rat aortic rings to phenylephrine; details: rat aortic rings, 24 h, 11-dehydro-corticosterone 100 nmol/L
Description: Male Sprague-Dawley (150-200 g) rats were anesthetized with pentobarbital (50 mg/kg IP), and a median sternotomy was performed followed by the rapid removal of the thoracic aorta. The adventitia was removed, but the endothelium was left intact. The aorta was cut into 2-3 mm rings and individual rings were placed into a single well of a twenty four well culture plate and incubated at 37° C. under 95% O2-5% CO2. Each well contained 1 mL of DMEM/F12 containing 1% fetal bovine serum, streptomycin (100 μg/ml), penicillin (100 units/ml) and amphotericin (0.25 μg/ml). Aortic rings were incubated for 24 hours prior to contractility measurements with the following combinations of steroids, and antisense/nonsense oligonucleotides (3 μmol/L):
Antisense phosphorothioate oligonucleotides, targeted to block either 11β-HSD2 or 11β-HSD1 gene expression, were obtained from Research Genetics, Huntsville Ala. Antisense oligomers complementary to 20 bp sequences spanning the ribosome binding/translation start site were used. Oligomer sequences were: 5′-CATAACTGCCGTCCAACAGC-3′ (SEQ ID No.: 2) for 11β-HSD1 Antisense and 5′-AGCCCAGCGCTCCATGACTT-3′ (SEQ ID No. 3) for 111-HSD2 antisense. In control experiments the corresponding sense sequence was used as the nonsense oligomer. Antisense and nonsense oligomers were added directly to each well at 20 μg/10:1 sterile H20 per well for a final concentration of 3 μmol/L.
For contraction measurements, aortic rings were suspended by tungsten wires with 1 g of tension and placed in a vessel bath containing serum free DMEM/F12 media at 37° C. aerated with 95% O2-5% CO2, at pH 7.4. Vessels were equilibrated for 20 minutes and then tested with phenylephrine ([…]-10 μmol/L). […] The intensity of contraction was assessed by use of a Narishige micromanipulator and model FT03 force transducer (Grass Instrument Co. West Warwick, R.I.). Measurements were recorded on computer using the Labview 4.1 Virtual Instrument System (National Instruments, Austin, Tex.).

11β-HSD1 Reductase = biological target: T3, 11β-HSD1 Reductase (Rattus norvegicus, UniProt P16232); test: 11β-HSD1 reductase inhibition, testicular Leydig cell homogenates; assay type: biochemical; details: result in words
T3 construct: testicular leydig cell homogenates; from tissue; host or cells: testicular Leydig cell homogenates
T3 sequence (P16232 whole entry): as the sequence (P16232 whole entry) above

CC(=O)[C@H]1CC[C@H]2[C@@H]3CCC4=CC(=O)CC[C@]4(C)[C@H]3C(=O)C[C@]12C [11-Keto-progesterone]
metabolism of 11-dehydro-corticosterone back to corticosterone [1]: decreased | 11β-HSD1 Dehydrogenase inhibition (11β-HSD1 Dehydrogenase): No Inhibition | 11β-HSD2 Dehydrogenase inhibition (11β-HSD2 Dehydrogenase): Potent Inhibitor | ability of 11-dehydro-corticosterone to amplify the contractile response to phenylephrine (rat aortic rings): diminished | 11β-HSD1 Reductase inhibition (11β-HSD1 Reductase): Selective Inhibitor

— patent US20070219172A1, “Selective testicular 11beta-HSD inhibitors for the treatment of hypergonadism associated disorders and modulation of fertility” (The Miriam Hospital, priority 2005, published 2007)
